Columns and labels:
Type in all cases: cell-based
[1] = system: Geobacillus stearothermophilus 7953 spores; assay: Clamshell package with chlorite/HMS absorbent pad in humid desiccator: autoclave sterility test strip; details: gaseous ClO2 about 25-50 ppm after 24 hours, 89% RH, 35° C.
Excerpt: (§1) We tested a clamshell package made of plastic (commonly PLA or polyethylene terephthalate (PET)), typical of the packaging used to contain fresh produce or berries as sold in supermarkets, convenience stores, and other grocery stores. These clamshell packages have vent holes that allow the free-flow exchange of gases between the interior of the package and its surrounding environment.
A beaker with two ClO2 indicator test strips (high range, 0-500 ppm), one Geobacillus stearothermophilus 7953 autoclave sterility test strip and one Bacillus atrophaeus ethylene oxide gas sterility test strip, was placed inside the clamshell package. A piece of blue material comprising non-woven textiles and superabsorbent hydrogel, characteristic of a common disposable diaper, was cut into a 3×1 inch rectangle. Dry sodium chlorite and dry HMS were placed on spatially separate regions of the material. The blue absorbent pad was sprayed with a small amount of water, and then folded in half. The entire clamshell package (containing the indicator strips, microbial test strips, and blue pad with reactive reagents) was placed inside a […] The entire desiccator assembly, containing the salt solution in the bottom and the clamshell package above the solution on a perforated platform, was placed inside an incubator at 35° C., which re-equilibrated and increased RH to 89%. […]

[2] = system: spores of Bacillus cereus; assay: Microbiological validation of aqueous ClO2 using Bacillus cereus spores, serial dilutions and plate-counting on Nutrient Agar; details: dilutions 1-10^-6, NA plates 18 hours at 37° C.
[3] = system: Bacillus atrophaeus spores; assay: Clamshell package with chlorite/HMS absorbent pad in humid desiccator: ethylene oxide gas sterility test strip; details: gaseous ClO2 about 25-50 ppm after 24 hours, 89% RH, 35° C.
Excerpt: as §1
A beaker with two ClO2 indicator test strips (high range, 0-500 ppm), one Geobacillus stearothermophilus 7953 autoclave sterility test strip and one Bacillus atrophaeus ethylene oxide gas sterility test strip, was placed inside the clamshell package. A piece of blue material comprising non-woven textiles and superabsorbent hydrogel, characteristic of a common disposable diaper, was cut into a 3×1 inch rectangle. Dry sodium chlorite and dry HMS were placed on spatially separate regions of the material. The blue absorbent pad was sprayed with a small amount of water, and then folded in half. The entire clamshell package (containing the indicator strips, microbial test strips, and blue pad with reactive reagents) was placed inside a desiccator charged with […] The entire desiccator assembly, containing the salt solution in the bottom and the clamshell package above the solution on a perforated platform, was placed inside an incubator at 35° C., which re-equilibrated and increased RH to 89%. […]

[4] = system: mold on cotton-based parachute sleeve; assay: Mold growth on moldy cotton parachute sleeve sample on Potato Dextrose Agar after ClO2 treatment; details: 10 mL of 100 ppm ClO2 solution, mixed intermittently over 20 minutes, quenched; stored at 30° C. for 5 days
Description: Dry reagents of HMS and chlorite ion were added to distilled de-ionized water to produce chlorine dioxide. A cotton-based parachute sleeve that is characteristically used to hold and release parachutes during jumps and to store folded parachutes after jumps was chosen for use. […] Approximately 1×1 in^2 was cut from a parachute sleeve and placed using sterile forceps into a Petri dish of sterile Potato Dextrose Agar (PDA) with a few drops of sterile water. […] A 1×1 in^2 sample was removed from the moldy dish using a sterile technique and placed in a new sterile Petri dish of PDA with sterile water. A second 1×1 in^2 sample was placed in a plastic pouch with 10 mL of 100 ppm ClO2 solution and mixed in a paddle-blender for 2 minutes intermittently over a 20 minute period. At 20 min, reductant was added to quench any excess ClO2, and the sample was placed on a fresh Petri dish of PDA. Both samples were stored at 30° C. for 5 days.

Structure (SMILES): [O][Cl+][O-] [ClO2, chlorine dioxide]
- microbial growth of G. stearothermophilus indicator test strip [1]: negative for microbial growth
- growth of B. cereus from inoculated protective garment fabric ([2]; 10 microliter inoculum on 1×1 in^2 fabric, 100 ppm ClO2 solution, paddle-blender 15 min, quenched): no discernible growth
- colonies on NA plates (plate-counts) ([2]; B. cereus spore inoculum in 10 mL of 100 ppm aqueous ClO2 solution, paddle-stomacher 15 min, quenched with reductant): no discernible colonies
- microbial growth of B. atrophaeus indicator test strip [3]: negative for microbial growth
- mold growth on cotton sleeve sample and PDA [4]: no signs of mold growth

Reference: US11358863B2, “Method and composition of humidity-controlled generation of chlorine dioxide in polymers and superabsorbent hydrogels” (priority 2017, dated 2022)
